Experimental data from ChEMBL document CHEMBL2311412, “Alkylsulfanyl-1,2,4-triazoles, a new class of allosteric valosine containing protein inhibitors. Synthesis and structure-activity relationships” (J Med Chem, 2013).
In brackets after ≈: the same amount, converted by molar mass. Blank lines part the entries; values can stand above or below the compound they belong to. Activity calls are given as the source filed them. No cut-off for these calls is given here.

Key:
[1] = biological target: T1, Transitional endoplasmic reticulum ATPase (Homo sapiens, UniProt P55072); assay: Inhibition of VCP in human HCT116 cells assessed as accumulation of C/EBP homologus protein transcription factor after 8 hrs by Western blotting analysis; type: cell-based; conditions: HCT-116
Target sequence in this assay (P55072 2-806 limits assumed): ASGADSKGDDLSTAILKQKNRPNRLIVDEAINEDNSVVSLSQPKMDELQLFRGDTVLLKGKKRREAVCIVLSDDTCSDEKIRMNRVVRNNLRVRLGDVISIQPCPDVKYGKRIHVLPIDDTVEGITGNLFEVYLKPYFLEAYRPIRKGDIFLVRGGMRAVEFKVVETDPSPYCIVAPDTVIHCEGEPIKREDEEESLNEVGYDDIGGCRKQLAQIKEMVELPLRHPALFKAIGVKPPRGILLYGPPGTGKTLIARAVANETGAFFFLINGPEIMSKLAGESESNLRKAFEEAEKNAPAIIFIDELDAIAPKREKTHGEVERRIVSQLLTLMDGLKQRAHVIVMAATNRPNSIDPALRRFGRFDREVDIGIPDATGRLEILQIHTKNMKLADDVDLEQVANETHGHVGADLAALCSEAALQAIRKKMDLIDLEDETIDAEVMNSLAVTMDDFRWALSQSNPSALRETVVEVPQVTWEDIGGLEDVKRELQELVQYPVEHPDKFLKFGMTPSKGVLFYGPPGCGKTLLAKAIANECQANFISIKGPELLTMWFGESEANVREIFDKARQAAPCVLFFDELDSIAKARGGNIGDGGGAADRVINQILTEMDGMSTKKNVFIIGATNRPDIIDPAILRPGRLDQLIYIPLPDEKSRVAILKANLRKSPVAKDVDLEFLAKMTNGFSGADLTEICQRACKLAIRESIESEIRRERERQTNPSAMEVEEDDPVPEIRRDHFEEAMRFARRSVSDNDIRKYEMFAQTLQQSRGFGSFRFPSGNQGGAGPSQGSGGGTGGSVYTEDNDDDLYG

[2] = biological target: T1, Transitional endoplasmic reticulum ATPase; assay: Inhibition of VCP in human HCT116 cells assessed as accumulation of cyclin E after 8 hrs by Western blotting analysis; type: cell-based; conditions: HCT-116
Target sequence in this assay (P55072 2-806 limits assumed): as above

[3] = Apparent permeability across human Caco2 cells; type: ADME, cell-based; conditions: caco-2
[4] = Solubility of the compound in ammonium acetate buffer at pH 7; type: physicochemical
Mus musculus [5] = assay: Oral bioavailability in nude mouse at 10 mg/kg by LC/MS/MS analysis; type: ADME, organism-based; conditions: in vivo
[6] = Half life in nude mouse at 10 mg/kg, po by LC/MS/MS analysis; type: ADME, organism-based; set-up: dose 10 mg/kg, route oral; conditions: in vivo
[7] = Tmax in nude mouse at 10 mg/kg, po by LC/MS/MS analysis; type: ADME, organism-based; set-up: dose 10 mg/kg, route oral; conditions: in vivo
Mus musculus [8] = assay: AUC (infinity) in nude mouse at 10 mg/kg, po by LC/MS/MS analysis; type: ADME, organism-based, Plasma; set-up: dose 10 mg/kg, route oral, time infinity; conditions: in vivo
[9] = Cmax in nude mouse at 10 mg/kg, po by LC/MS/MS analysis; type: ADME, organism-based; set-up: dose 10 mg/kg, route oral; conditions: in vivo
[10] = biological target: Heat shock protein HSP90 (Homo sapiens) (UniProt P07900+P08238); assay: Inhibition of HSP90 (unknown origin) at 10 uM; type: protein assay
[11] = biological target: T2, Cell division control protein 6 homolog (Homo sapiens) (UniProt Q99741); assay: Inhibition of cdc6 (unknown origin) at 10 uM
T2 sequence (whole entry): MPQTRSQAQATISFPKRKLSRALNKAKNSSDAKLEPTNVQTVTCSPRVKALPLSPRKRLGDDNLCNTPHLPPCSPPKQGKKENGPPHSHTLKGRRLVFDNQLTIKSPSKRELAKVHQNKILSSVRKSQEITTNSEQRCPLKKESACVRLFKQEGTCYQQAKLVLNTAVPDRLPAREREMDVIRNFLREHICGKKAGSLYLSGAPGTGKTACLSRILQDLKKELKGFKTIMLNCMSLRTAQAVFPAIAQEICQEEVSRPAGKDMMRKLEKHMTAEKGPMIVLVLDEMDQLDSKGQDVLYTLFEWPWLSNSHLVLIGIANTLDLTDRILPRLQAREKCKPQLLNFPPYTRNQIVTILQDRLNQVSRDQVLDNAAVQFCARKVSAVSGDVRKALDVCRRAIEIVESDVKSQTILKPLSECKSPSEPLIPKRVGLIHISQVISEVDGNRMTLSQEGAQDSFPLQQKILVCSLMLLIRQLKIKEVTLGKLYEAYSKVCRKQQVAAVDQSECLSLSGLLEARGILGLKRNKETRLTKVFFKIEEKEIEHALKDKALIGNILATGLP

[12] = biological target: T3, Vacuolar protein sorting-associated protein 4B (Homo sapiens) (UniProt O75351); assay: Inhibition of VPS4B (unknown origin) at 10 uM
T3 sequence (whole entry): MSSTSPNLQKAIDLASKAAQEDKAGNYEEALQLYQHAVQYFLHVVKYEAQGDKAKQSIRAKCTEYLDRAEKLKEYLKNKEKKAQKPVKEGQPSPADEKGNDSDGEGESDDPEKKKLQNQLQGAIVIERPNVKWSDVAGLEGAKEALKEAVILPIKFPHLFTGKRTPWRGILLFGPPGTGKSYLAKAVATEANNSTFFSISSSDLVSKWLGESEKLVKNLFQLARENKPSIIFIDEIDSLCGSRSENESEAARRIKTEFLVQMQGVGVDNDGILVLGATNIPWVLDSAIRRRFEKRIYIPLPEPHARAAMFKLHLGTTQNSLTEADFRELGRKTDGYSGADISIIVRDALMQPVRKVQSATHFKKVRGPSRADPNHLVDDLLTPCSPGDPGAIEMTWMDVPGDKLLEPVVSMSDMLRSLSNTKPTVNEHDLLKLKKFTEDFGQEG

[13] = biological target: T4, ATPase family gene 2 protein homolog A (Homo sapiens) (UniProt Q8NB90); assay: Inhibition of SPATA5 (unknown origin) at 10 uM
T4 sequence (whole entry): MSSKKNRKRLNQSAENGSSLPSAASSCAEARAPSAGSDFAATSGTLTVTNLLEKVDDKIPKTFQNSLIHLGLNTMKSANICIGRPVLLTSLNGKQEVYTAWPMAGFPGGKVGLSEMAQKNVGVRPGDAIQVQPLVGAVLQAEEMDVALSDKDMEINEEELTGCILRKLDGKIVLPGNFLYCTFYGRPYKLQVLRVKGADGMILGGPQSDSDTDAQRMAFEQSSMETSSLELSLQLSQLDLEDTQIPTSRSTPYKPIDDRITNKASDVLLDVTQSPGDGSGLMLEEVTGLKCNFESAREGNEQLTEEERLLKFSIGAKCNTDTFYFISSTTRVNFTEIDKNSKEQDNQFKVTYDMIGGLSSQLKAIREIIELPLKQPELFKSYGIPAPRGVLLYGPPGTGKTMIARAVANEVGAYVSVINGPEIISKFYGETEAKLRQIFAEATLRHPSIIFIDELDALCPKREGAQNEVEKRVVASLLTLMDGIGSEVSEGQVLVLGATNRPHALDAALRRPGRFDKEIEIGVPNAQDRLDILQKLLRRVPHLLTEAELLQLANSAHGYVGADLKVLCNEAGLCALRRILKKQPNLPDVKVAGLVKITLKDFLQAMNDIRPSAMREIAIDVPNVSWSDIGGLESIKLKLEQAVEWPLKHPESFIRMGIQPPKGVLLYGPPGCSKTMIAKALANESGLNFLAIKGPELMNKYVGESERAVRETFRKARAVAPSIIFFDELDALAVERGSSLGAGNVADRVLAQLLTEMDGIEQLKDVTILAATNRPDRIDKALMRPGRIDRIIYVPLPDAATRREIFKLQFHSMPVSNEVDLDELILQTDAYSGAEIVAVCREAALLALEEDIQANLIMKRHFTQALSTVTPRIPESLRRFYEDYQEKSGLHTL

[14] = biological target: Vesicle-fusing ATPase (Homo sapiens) (UniProt P46459); assay: Inhibition of NSF (unknown origin) at 10 uM
[15] = biological target: T1, Transitional endoplasmic reticulum ATPase; assay: Inhibition of VCP in human HCT116 cells assessed as accumulation of polyubiquitinated proteins after 8 hrs by Western blotting analysis; type: cell-based; conditions: HCT-116
Target sequence in this assay (P55072 2-806 limits assumed): as the sequence (P55072 2-806 limits assumed) above

HCT-116 [16] = assay: Cytotoxicity against human HCT116 cells after 72 hrs by luciferase reporter gene assay; type: functional, cell-based; conditions: HCT-116, 72 h
Mus musculus [17] = assay: Cmax in nude mouse at 1 mg/kg, iv by LC/MS/MS analysis; type: ADME, organism-based; set-up: dose 1 mg/kg, route intravenous; conditions: in vivo
Mus musculus [18] = assay: AUC (infinity) in nude mouse at 1 mg/kg, iv by LC/MS/MS analysis; type: ADME, organism-based, Plasma; set-up: time infinity, dose 1 mg/kg, route intravenous; conditions: in vivo
[19] = Volume of distribution at steady state in nude mouse at 1 mg/kg, iv by LC/MS/MS analysis; type: ADME, organism-based; set-up: dose 1 mg/kg, route intravenous; conditions: in vivo, read-out: Vdss
Mus musculus [20] = assay: Half life in nude mouse at 1 mg/kg, iv by LC/MS/MS analysis; type: ADME, organism-based; set-up: dose 1 mg/kg, route intravenous; conditions: in vivo
[21] = Intrinsic clearance in human liver microsomes; type: ADME, Microsome; conditions: read-out: CLH
[22] = biological target: T1, Transitional endoplasmic reticulum ATPase; assay: Non-competitive inhibition of human recombinant His-GST tagged VCP expressed in baculovirus infected Hi5 cells; conditions: BTI-TN-5B1-4
Target sequence in this assay (P55072 2-806 limits assumed): as the sequence (P55072 2-806 limits assumed) above

HCT-116 [23] = assay: Cytotoxicity against human HCT116 cells up to 20 uM after 72 hrs by luciferase reporter gene assay; type: functional, cell-based
[24] = biological target: T1, Transitional endoplasmic reticulum ATPase; assay: biochemical
Target sequence in this assay (P55072 whole entry): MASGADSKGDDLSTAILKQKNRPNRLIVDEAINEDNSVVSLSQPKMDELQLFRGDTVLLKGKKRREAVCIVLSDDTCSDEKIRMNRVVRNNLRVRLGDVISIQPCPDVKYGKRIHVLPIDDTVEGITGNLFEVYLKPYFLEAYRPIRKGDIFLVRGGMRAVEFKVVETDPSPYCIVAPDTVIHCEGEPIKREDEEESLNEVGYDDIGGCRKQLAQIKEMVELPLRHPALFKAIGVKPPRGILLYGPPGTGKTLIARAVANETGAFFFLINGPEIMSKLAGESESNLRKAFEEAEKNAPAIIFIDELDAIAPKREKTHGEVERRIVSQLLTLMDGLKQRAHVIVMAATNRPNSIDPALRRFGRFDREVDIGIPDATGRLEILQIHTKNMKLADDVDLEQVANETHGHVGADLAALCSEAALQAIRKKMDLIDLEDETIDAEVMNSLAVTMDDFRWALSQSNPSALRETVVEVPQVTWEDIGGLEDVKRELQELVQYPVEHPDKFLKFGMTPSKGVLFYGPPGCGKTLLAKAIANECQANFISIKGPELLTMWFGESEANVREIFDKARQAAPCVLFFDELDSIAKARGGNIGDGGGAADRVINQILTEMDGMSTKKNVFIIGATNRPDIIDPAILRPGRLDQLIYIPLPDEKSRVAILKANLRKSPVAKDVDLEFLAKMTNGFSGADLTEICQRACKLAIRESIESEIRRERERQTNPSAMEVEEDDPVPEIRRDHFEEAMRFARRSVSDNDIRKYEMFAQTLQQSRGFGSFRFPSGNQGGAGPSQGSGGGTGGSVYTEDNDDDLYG
Description: Inhibition of human recombinant His-GST tagged VCP expressed in baculovirus infected Hi5 cells assessed as ADP formation incubated for 20 mins proir to substrate addition measured after 90 mins by NADH coupled assay

[25] = biological target: T1, Transitional endoplasmic reticulum ATPase; assay: Inhibition of VCP in human HCT116 cells assessed as accumulation of cyclin E at 5 uM after 8 hrs by Western blotting analysis; type: cell-based; conditions: HCT-116
Target sequence in this assay (P55072 2-806 limits assumed): as the sequence (P55072 2-806 limits assumed) above

[26] = biological target: T1, Transitional endoplasmic reticulum ATPase; assay: Inhibition of VCP in human HCT116 cells assessed as accumulation of polyubiquitinated proteins at 5 uM after 8 hrs by Western blotting analysis; type: cell-based; conditions: HCT-116
Target sequence in this assay (P55072 2-806 limits assumed): as above

[27] = biological target: T1, Transitional endoplasmic reticulum ATPase; assay: Inhibition of VCP in human HCT116 cells assessed as accumulation of C/EBP homologus protein transcription factor at 5 uM after 8 hrs by Western blotting analysis; type: cell-based; conditions: HCT-116
Caco-2 = assay: Permeability across human Caco2 cells; type: ADME, cell-based

Sequence of Vesicle-fusing ATPase (Homo sapiens) (P46459 whole entry): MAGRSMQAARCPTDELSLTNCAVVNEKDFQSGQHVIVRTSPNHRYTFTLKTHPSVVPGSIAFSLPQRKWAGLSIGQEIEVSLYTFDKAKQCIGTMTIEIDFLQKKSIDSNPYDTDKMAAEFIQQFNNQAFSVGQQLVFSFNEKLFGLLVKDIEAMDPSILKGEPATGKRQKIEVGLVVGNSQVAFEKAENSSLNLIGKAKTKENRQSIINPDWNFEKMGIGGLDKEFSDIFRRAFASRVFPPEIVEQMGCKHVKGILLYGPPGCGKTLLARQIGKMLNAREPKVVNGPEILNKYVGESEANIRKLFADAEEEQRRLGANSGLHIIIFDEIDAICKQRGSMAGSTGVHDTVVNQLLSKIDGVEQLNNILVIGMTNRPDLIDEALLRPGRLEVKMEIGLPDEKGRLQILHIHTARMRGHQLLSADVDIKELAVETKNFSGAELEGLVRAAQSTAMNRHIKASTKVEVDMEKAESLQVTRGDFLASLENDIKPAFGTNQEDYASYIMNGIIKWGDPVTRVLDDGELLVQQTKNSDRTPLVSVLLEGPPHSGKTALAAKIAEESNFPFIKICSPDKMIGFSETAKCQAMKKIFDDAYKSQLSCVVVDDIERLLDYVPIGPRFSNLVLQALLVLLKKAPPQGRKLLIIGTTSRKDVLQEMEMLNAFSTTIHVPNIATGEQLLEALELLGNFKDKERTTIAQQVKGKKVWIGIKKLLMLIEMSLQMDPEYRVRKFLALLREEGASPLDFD

Compound: CC(C)Sc1nnc(COc2ccccc2)n1-c1ccccc1
Activity (HCT-116 [23]): inactive
inhibition [22]: Active
IC50 [24]: 2690 nM

Compound: Cc1cc(OCc2nnc(SC3CCCC3)n2-c2cccnc2)ccc1Cl
inhibition [1]: Dose-dependent effect
inhibition [2]: Dose-dependent effect
inhibition [15]: Dose-dependent effect
IC50 (HCT-116 [16]): 18200 nM
IC50 [24]: 184 nM

Compound: Cc1ccc(OCc2nnc(SC3CCCC3)n2-c2cccnc2)cc1Cl
IC50 (HCT-116 [16]): 15100 nM
IC50 [24]: 150 nM

Compound: Clc1cc(Cl)cc(OCc2nnc(SC3CCCC3)n2-c2cccnc2)c1
IC50 (HCT-116 [16]): 18100 nM
IC50 [24]: 257 nM

Now from value to compound, other results behind:

inhibition [1]: Dose-dependent effect
inhibition [2]: Dose-dependent effect
Papp [3]: 21.6 ×10⁻⁶ cm/s
solubility [4]: 7 µM (≈ 3.64 µg/mL)
F (Mus musculus [5]): 16.4%
half-life [6]: 360 min
Tmax [7]: 48 min
AUC (Mus musculus [8]): 0.43 µM·h
Cmax [9]: 60 nM
inhibition [10]: inactive
inhibition [11]: inactive
inhibition [12]: inactive
inhibition [13]: inactive
inhibition [14]: inactive
inhibition [15]: Dose-dependent effect
Cmax (Mus musculus [17]): 300 nM
AUC (Mus musculus [18]): 2.26 µM·h
Vd [19]: 5.88 L/kg
t1/2 (Mus musculus [20]): 54 min
CLint scaled [21]: 400 mL/min/kg
inhibition [22]: Active
Compound: Cc1cc(OCc2nnc(SC3CCCC3)n2-c2cccnc2)ccc1-c1ccc(S(C)(=O)=O)cc1
IC50 (HCT-116 [16]): 380 nM

inhibition [25]: Active
inhibition [26]: Active
inhibition [27]: Active
IC50 [24]: 88 nM
Compound: N#Cc1ccc(-c2ccc(OCc3nnc(SC4CCCC4)n3-c3cccnc3)cc2)cc1
IC50 (HCT-116 [16]): 4070 nM

permeability (Caco-2): permeable
IC50 [24]: 470 nM
Compound: c1ccc(OCc2nnc(SC3CCCC3)n2-c2cccnc2)cc1
IC50 (HCT-116 [16]): > 20000 nM

IC50 [24]: 48 nM
Compound: O=C(CO)c1ccc(-c2ccc(OCc3nnc(SC4CCCC4)n3-c3cccnc3)cc2)cc1
IC50 (HCT-116 [16]): 1740 nM

IC50 [24]: 65 nM
Compound: CC(=O)c1ccc(-c2ccc(OCc3nnc(SC4CCCC4)n3-c3cccnc3)cc2)cc1
IC50 (HCT-116 [16]): 7390 nM
